Source: ChEMBL document CHEMBL1201862, “PubChem BioAssay data set” (2004)
“And” between values parts separate entries of the source, which are not always exact repeats. Equal values may be shown once. The source made the active and inactive calls.

How the values were obtained:
[1] = test system: Streptococcus sp. 'group A'; assay: Streptococcus pyogenes SK(-)GAS viability under kanamycin – luminescence, BacTiterGlo, confirmation, counter-screen for streptokinase expression inhibitor project, dose response (AID 1900); type: functional, organism-based
Streptokinase A = biological target: T1, Streptokinase A (Streptococcus pyogenes serotype M1, UniProt P10520); assay: viability-normalized secreted streptokinase activity reduction – plasminogen activation absorbance, OD405, dose response (AID 1914); type: functional, Streptococcus pyogenes M1 GAS;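 note: secreted streptokinase activity via plasminogen activation per viability signal from cell pellet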
T1 sequence (P10520 whole entry): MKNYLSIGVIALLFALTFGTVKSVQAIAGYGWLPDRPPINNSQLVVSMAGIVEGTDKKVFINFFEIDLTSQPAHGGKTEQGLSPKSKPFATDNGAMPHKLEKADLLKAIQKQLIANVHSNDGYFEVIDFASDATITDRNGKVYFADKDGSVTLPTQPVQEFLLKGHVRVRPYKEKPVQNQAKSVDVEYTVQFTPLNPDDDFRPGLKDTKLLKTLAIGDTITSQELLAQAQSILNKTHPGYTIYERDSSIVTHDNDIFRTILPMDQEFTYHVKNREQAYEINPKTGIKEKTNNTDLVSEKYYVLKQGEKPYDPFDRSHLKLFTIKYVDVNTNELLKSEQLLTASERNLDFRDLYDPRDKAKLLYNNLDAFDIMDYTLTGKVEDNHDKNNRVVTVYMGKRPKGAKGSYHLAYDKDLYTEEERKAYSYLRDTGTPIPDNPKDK

Streptococcus = assay: GAS UMAA2166 growth inhibition – luminescence, BacTiterGlo, counter-screen for streptokinase expression inhibitor project, dose response (AID 1915); type: functional, organism-based;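 note: potency for reduction of bacterial viability or growth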
[2] = THP-1 cell cytotoxicity, dose response, cytotoxicity control for non-replicating M. tuberculosis project (AID 489025); type: functional
cells [3] = type: functional
[4] = TB: CFU replicating Measured in Microorganism System Using Imaging - 7108-05_Inhibitor_Dose_DryPowder_Activity_Set2.; type: functional
[5] = Luminescence-based cell-based high throughput dose response assay to identify activators of the DAF-12 from the parasite S. stercoralis (ssDAF-12).; type: functional
[6] = biological target: T2, Oxysterols receptor LXR-beta (Homo sapiens, UniProt P55055); assay: LXR agonists, Gal4 luciferase reporter, dose response, counter-screen for ssDAF-12 agonist project, cell-based, luminescence, HEK293, S. stercoralis campaign (AID 720737); type: functional; conditions: read-out: IC50 (the source's name)
T2 sequence (P55055 whole entry): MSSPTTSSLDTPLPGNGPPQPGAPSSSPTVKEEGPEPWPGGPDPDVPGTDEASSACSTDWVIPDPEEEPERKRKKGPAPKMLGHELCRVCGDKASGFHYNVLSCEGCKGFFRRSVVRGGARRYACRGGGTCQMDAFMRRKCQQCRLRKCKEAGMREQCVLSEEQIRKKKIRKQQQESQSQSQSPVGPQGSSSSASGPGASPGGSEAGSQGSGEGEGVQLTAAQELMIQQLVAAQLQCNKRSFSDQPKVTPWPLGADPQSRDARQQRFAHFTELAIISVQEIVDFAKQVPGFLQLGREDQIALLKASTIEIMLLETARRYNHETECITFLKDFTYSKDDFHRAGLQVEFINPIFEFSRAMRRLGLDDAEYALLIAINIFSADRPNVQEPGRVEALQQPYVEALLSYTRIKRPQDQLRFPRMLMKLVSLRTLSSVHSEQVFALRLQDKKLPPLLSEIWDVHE

[7] = biological target: T3, Acyl-homoserine lactone acylase PvdQ (Pseudomonas aeruginosa (strain LESB58), UniProt Q9I194); assay: PvdQ acylase enzyme activity blockers – biochemical, fluorescence, plate reader and imaging, cherry-picks, dose response (AID 493231)
T3 sequence (Q9I194 whole entry): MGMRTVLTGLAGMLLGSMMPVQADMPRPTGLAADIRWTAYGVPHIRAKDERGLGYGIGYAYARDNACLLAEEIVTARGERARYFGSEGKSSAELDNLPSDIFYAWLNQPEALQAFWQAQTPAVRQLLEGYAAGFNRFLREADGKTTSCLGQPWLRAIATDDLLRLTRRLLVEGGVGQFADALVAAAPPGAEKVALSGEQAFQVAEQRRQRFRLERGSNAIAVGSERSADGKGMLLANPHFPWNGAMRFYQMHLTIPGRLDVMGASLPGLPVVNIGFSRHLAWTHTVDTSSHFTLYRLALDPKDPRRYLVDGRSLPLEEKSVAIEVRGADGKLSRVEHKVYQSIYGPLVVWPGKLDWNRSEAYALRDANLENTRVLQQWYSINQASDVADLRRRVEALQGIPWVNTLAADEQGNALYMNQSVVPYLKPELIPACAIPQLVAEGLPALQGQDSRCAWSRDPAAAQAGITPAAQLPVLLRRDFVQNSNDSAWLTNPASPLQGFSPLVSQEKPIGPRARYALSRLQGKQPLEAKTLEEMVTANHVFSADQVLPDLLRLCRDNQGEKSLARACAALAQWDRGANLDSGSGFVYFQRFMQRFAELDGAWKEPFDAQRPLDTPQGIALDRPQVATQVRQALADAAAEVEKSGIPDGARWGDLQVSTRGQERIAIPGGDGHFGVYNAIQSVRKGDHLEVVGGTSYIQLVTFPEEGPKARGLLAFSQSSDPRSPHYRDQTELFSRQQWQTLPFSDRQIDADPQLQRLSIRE

[8] = biological target: T2, Oxysterols receptor LXR-beta; type: functional, cell-based
cells [9] = assay: cells
[10] = blockers of HIV-1 envelope-mediated cell-cell fusion – cherry-pick, dose response (AID 652057); type: functional, cell-based
[11] = HIV-1 AD8 envelope cell-cell fusion blockers – cherry-pick, dose response (AID 652062); type: functional, cell-based;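 note: luciferase signal from cell-cell fusion driven by HIV-1 clade B AD8 Env; potency is for inhibitors of fusion seen as a drop in luminescence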
[12] = inhibition of Env-driven cell fusion – HIV entry, plate reader, dry powder, dose response (AID 687023); type: functional, cell-based
[13] = inhibitors of TRPM1-promoter reporter in SK-MEL-5 – cell-based, luciferase, dry powder, set 9, MITF inhibitor project, dose response (AID 651588); type: functional
[14] = MITF Orthogonal Assay: MALME3 CTG Assay Measured in Cell-Based System Using Plate Reader - 2084-04_Inhibitor_Dose_DryPowder_Activity_Set6.; type: functional; conditions: MALME-3
[15] = growth inhibition of SK-MEL-5 melanoma cells – cell-based, CellTiter-Glo luminescence, dry powder, set 8, orthogonal assay for MITF inhibitor project, dose response (AID 651586); type: functional
[16] = growth inhibition of MALME3 cells – cell-based, CellTiter-Glo luminescence, dry powder, set 5, orthogonal assay for MITF inhibitor project, dose response (AID 651584); type: functional; conditions: MALME-3
[17] = MITF Orthogonal Assay: SK-MEL-5 CTG Assay Measured in Cell-Based System Using Plate Reader - 2084-02_Inhibitor_Dose_DryPowder_Activity_Set7.; type: functional
[18] = MITF: Counter assay: A375 proliferation Measured in Cell-Based System Using Plate Reader - 2084-03_Inhibitor_Dose_DryPowder_Activity_Set8.; type: functional; conditions: A-375
[19] = cytotoxicity in MITF-independent A375 cells – cell-based, CellTiter-Glo luminescence, dry powder, set 9, counter-screen for MITF modulator project, dose response (AID 651591); type: functional; conditions: A-375
[20] = inhibitors of TRPM1-promoter reporter in SK-MEL-5 – cell-based, luciferase, dry powder, set 8, MITF inhibitor project, dose response (AID 624430); type: functional
[21] = melanocyte viability loss, MITF-dependent cells, cell-based, plate reader, dry powder, cytotoxicity control, dose response (AID 651920); type: functional
[22] = toxicity to HepG2 liver cells – cell-based, plate reader, dry powder, set 6, cytotoxicity control, dose response (AID 743311); type: functional
[23] = toxicity to A549 lung cells – cell-based, plate reader, dry powder, set 6, cytotoxicity control, dose response (AID 743312); type: functional
cells [24] = conditions: HEK293
INS1 = assay: INS-1E survival protection against cytokine death – cell-based, luminescence, retest, dose response (AID 449756); type: functional; conditions: Rattus norvegicus;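 note: cell death triggered by IL-1 beta plus TNF-alpha plus IFN-gamma mixture; protective hits raise ATP signal compared with cytokine alone wells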
P388/ADR = assay: cells; type: functional; conditions: Mus musculus
SN12K1 = assay: cells; type: functional; conditions: Homo sapiens
P388 = assay: cells; type: functional; conditions: Mus musculus
[25] = biological target: T4, Sentrin-specific protease 8 (Homo sapiens, UniProt Q96LD8); type: functional
T4 sequence (Q96LD8 whole entry): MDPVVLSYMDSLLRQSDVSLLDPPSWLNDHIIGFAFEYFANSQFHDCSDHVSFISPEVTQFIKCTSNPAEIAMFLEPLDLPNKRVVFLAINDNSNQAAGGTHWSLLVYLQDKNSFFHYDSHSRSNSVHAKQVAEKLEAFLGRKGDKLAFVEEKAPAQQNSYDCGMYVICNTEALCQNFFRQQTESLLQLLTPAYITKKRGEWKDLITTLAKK

[26] = biological target: T4, Sentrin-specific protease 8; type: functional; remark: listed apart in the source
[27] = biological target: T5, DNA repair protein RAD52 homolog (Homo sapiens, UniProt P43351); type: functional, biochemical
T5 sequence (P43351 whole entry): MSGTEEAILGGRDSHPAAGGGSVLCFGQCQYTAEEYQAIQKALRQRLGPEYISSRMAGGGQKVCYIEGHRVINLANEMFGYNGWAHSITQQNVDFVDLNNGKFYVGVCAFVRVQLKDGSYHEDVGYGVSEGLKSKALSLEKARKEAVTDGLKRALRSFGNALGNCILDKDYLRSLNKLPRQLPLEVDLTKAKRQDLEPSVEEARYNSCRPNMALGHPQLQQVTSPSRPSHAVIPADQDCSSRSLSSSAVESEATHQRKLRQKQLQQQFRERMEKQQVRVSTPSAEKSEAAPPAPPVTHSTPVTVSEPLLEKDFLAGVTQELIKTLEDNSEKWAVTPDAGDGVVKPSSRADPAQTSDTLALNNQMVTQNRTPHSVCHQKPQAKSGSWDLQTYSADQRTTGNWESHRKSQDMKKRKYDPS

[28] = rise of 2N DNA cells, HeLa – IC50, dose response (AID 1117349); type: functional, cell-based
[29] = rise of 4N DNA cells, HeLa – IC50, dose response (AID 1117351); type: functional, cell-based

**Q.** For Cn1c(NC(=O)c2ccccc2)nc2ccccc21, which EC50 [1] is on record?
**A.** The EC50 was 14.8 µM (active).

**Q.** And the EC50 (Streptokinase A)?
**A.** The EC50 was > 150 µM (not active).

**Q.** And the EC50 (Streptococcus)?
**A.** The EC50 was > 150 µM (not active).

**Q.** And the CC50 [2]?
**A.** The CC50 was > 40 µM (active).

**Q.** What about the IC50 (cells [3]) of the same compound?
**A.** The IC50 was 2.41 µM (active).

**Q.** And the AbsAC90 [4]?
**A.** The AbsAC90 was 299.99 µM.

**Q.** What does the source list for Cc1ccc([N+](=O)[O-])cc1NC(=O)C1CCCC1?
**A.** IC50 [5]: > 67.5 µM (inactive); EC50 [6]: > 67.5 µM (inactive)

**Q.** With COc1ccc(-c2cc(=O)c3ccccc3s2)cc1 as the compound, how does the AC50 [7] read?
**A.** The AC50 was > 100 µM (inactive).

**Q.** What about the EC50 [8] of the same compound?
**A.** Its EC50 is > 67.5 µM (inactive).

**Q.** What about the EC50 (cells [9]) of the same compound?
**A.** Its EC50 is > 67.5 µM (inactive).

**Q.** For CCCC#Cc1ccc2c(c1)O[C@@H](CN(C)S(=O)(=O)c1cccc(F)c1)[C@@H](C)CN([C@H](C)CO)S2(=O)=O, which AC50 [10] is on record?
**A.** Its AC50 is 10.8 µM (active).

**Q.** What about the AC50 [11] of the same compound?
**A.** Its AC50 is 7.8 µM (active).

**Q.** And the AC50 [12]?
**A.** The AC50 was 12.4 µM (active).

**Q.** Which AC50 [13] does the source give for NS(=O)(=O)c1ccc(NC2=CC(=O)c3ccccc3C2=O)cc1 here?
**A.** Its AC50 is 1.23 µM (active).

**Q.** What about the AC50 [14] of the same compound?
**A.** Its AC50 is 0.703 µM (active).

**Q.** And the AC50 [15]?
**A.** Its AC50 is 0.751 µM (active).

**Q.** What about the AC50 [16] of the same compound?
**A.** The AC50 was 0.703 µM (active).

**Q.** What about the AC50 [17] of the same compound?
**A.** Its AC50 is 0.0771 µM (active).

**Q.** What about the AC50 [18] of the same compound?
**A.** The AC50 was > 70 µM (inactive).

**Q.** What about the AC50 [19] of the same compound?
**A.** The AC50 was > 70 µM (inactive).

**Q.** And the AC50 [20]?
**A.** The AC50 was 1.16 µM (active).

**Q.** And the AC50 [21]?
**A.** The AC50 was 7.15 µM (active) and 7.63 µM (active).

**Q.** Which AC50 [22] does the source give for c1ccc(-c2ccc(OCCn3cnc4ccccc43)cc2)cc1 here?
**A.** Its AC50 is 5.92 µM (active).

**Q.** And the AC50 [23]?
**A.** Its AC50 is 0.66 µM (active).

**Q.** What about the AC50 (cells [24]) of the same compound?
**A.** Its AC50 is > 52 µM (inactive).

**Q.** For COc1ccc2cc3[n+](cc2c1OC)CCc1cc2c(cc1-3)OCO2 [BERBERINE CHLORIDE], which AC50 (INS1) is on record?
**A.** The AC50 was 3.25 µM (active).

**Q.** What about the GI50 (P388/ADR) of the same compound?
**A.** Its GI50 is 102 µM (inactive).

**Q.** And the GI50 (SN12K1)?
**A.** The GI50 was 3.93 µM (inactive).

**Q.** What about the GI50 (P388) of the same compound?
**A.** Its GI50 is 1.87 µM (inactive).

**Q.** What about the IC50 [25] of the same compound?
**A.** The IC50 was > 100 µM (inactive).

**Q.** What about the IC50 [26] of the same compound?
**A.** Its IC50 is 7.66 µM (active).

**Q.** What about the AC50 [27] of the same compound?
**A.** Its AC50 is 2.38 µM (active) and 5.69 µM (active).

**Q.** And the IC50 [28]?
**A.** Its IC50 is > 10 µM (inactive).

**Q.** And the IC50 [29]?
**A.** Its IC50 is > 10 µM (inactive).
